Reference: PubChem BioAssay (NCI)
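Each compound was tested at five concentrations against cells in 96-well plates for 48 hours. TGI is the concentration that stops growth completely.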

Key:
Experiment in all cases: growth of human tumour cells (NCI), 48 h
OVCAR-5 ovarian = tested on: OVCAR-5 ovarian
SK-MEL-5 melanoma = tested on: SK-MEL-5 melanoma
NCI/ADR-RES ovarian = tested on: NCI/ADR-RES ovarian
NCI-H226 lung = tested on: NCI-H226 lung
A498 renal = tested on: A498 renal
MALME-3M melanoma = tested on: MALME-3M melanoma
HL-60(TB) leukemia = tested on: HL-60(TB) leukemia
UO-31 renal = tested on: UO-31 renal
M14 melanoma = tested on: M14 melanoma
SNB-75 CNS = tested on: SNB-75 CNS
MDA-N = tested on: MDA-N
HCT-116 colon = tested on: HCT-116 colon
HT29 colon = tested on: HT29 colon
DU-145 prostate = tested on: DU-145 prostate
KM12 colon = tested on: KM12 colon
MOLT-4 leukemia = tested on: MOLT-4 leukemia
PC-3 prostate = tested on: PC-3 prostate
786-0 renal = tested on: 786-0 renal
SW-620 colon = tested on: SW-620 colon
SF-268 CNS = tested on: SF-268 CNS
BT-549 breast = tested on: BT-549 breast
HCT-15 colon = tested on: HCT-15 colon
MDA-MB-435 = tested on: MDA-MB-435
SNB-19 CNS = tested on: SNB-19 CNS
SF-539 CNS = tested on: SF-539 CNS
UACC-257 melanoma = tested on: UACC-257 melanoma
OVCAR-3 ovarian = tested on: OVCAR-3 ovarian
SR leukemia = tested on: SR leukemia
HCC-2998 colon = tested on: HCC-2998 colon
UACC-62 melanoma = tested on: UACC-62 melanoma
HS 578T breast = tested on: HS 578T breast
SN12C renal = tested on: SN12C renal
A549 NSCLC = tested on: A549 NSCLC
SK-MEL-28 melanoma = tested on: SK-MEL-28 melanoma
SF-295 CNS = tested on: SF-295 CNS
U251 CNS = tested on: U251 CNS
IGROV1 ovarian = tested on: IGROV1 ovarian
EKVX NSCLC = tested on: EKVX NSCLC
MCF7 breast = tested on: MCF7 breast
HOP-62 NSCLC = tested on: HOP-62 NSCLC
NCI-H23 lung = tested on: NCI-H23 lung
TK-10 renal = tested on: TK-10 renal
NCI-H460 lung = tested on: NCI-H460 lung
RPMI-8226 leukemia = tested on: RPMI-8226 leukemia
K-562 leukemia = tested on: K-562 leukemia
RXF 393 renal = tested on: RXF 393 renal
OVCAR-8 ovarian = tested on: OVCAR-8 ovarian
SK-OV-3 ovarian = tested on: SK-OV-3 ovarian
CCRF-CEM leukemia = tested on: CCRF-CEM leukemia
HOP-92 NSCLC = tested on: HOP-92 NSCLC
ACHN renal = tested on: ACHN renal
COLO 205 colon = tested on: COLO 205 colon
CAKI-1 renal = tested on: CAKI-1 renal
LOX IMVI melanoma = tested on: LOX IMVI melanoma
MDA-MB-231 breast = tested on: MDA-MB-231 breast
OVCAR-4 ovarian = tested on: OVCAR-4 ovarian

What does the source list for CON(C)C(=O)C(C)NC(=O)OCc1ccccc1 (stereo not given)?
TGI (OVCAR-5 ovarian): > 100 µM; TGI (SK-MEL-5 melanoma): > 100 µM; TGI (NCI/ADR-RES ovarian): > 100 µM; TGI (NCI-H226 lung): > 100 µM; TGI (A498 renal): > 100 µM; TGI (MALME-3M melanoma): > 100 µM; TGI (HL-60(TB) leukemia): > 100 µM; TGI (UO-31 renal): > 100 µM; TGI (M14 melanoma): > 100 µM; TGI (SNB-75 CNS): > 100 µM; TGI (MDA-N): > 100 µM; TGI (HCT-116 colon): > 100 µM; TGI (HT29 colon): > 100 µM; TGI (DU-145 prostate): > 100 µM; TGI (KM12 colon): > 100 µM; TGI (MOLT-4 leukemia): > 100 µM; TGI (PC-3 prostate): > 100 µM; TGI (786-0 renal): > 100 µM; TGI (SW-620 colon): > 100 µM; TGI (SF-268 CNS): > 100 µM; TGI (BT-549 breast): > 100 µM; TGI (HCT-15 colon): > 100 µM; TGI (MDA-MB-435): > 100 µM; TGI (SNB-19 CNS): > 100 µM; TGI (SF-539 CNS): > 100 µM; TGI (UACC-257 melanoma): > 100 µM; TGI (OVCAR-3 ovarian): > 100 µM; TGI (SR leukemia): > 100 µM; TGI (HCC-2998 colon): > 100 µM; TGI (UACC-62 melanoma): > 100 µM; TGI (HS 578T breast): > 100 µM; TGI (SN12C renal): > 100 µM; TGI (A549 NSCLC): > 100 µM; TGI (SK-MEL-28 melanoma): > 100 µM; TGI (SF-295 CNS): > 100 µM; TGI (U251 CNS): > 100 µM; TGI (IGROV1 ovarian): > 100 µM; TGI (EKVX NSCLC): > 100 µM; TGI (MCF7 breast): > 100 µM; TGI (HOP-62 NSCLC): > 100 µM; TGI (NCI-H23 lung): > 100 µM; TGI (TK-10 renal): > 100 µM; TGI (NCI-H460 lung): > 100 µM; TGI (RPMI-8226 leukemia): > 100 µM; TGI (K-562 leukemia): > 100 µM; TGI (RXF 393 renal): > 100 µM; TGI (OVCAR-8 ovarian): > 100 µM; TGI (SK-OV-3 ovarian): > 100 µM; TGI (CCRF-CEM leukemia): > 100 µM; TGI (HOP-92 NSCLC): > 100 µM; TGI (ACHN renal): > 100 µM

With CCOc1snc(C(Cl)(Cl)Cl)c1Cl as the molecule, how does the TGI (OVCAR-5 ovarian) read?
Its TGI is > 100 µM.

What about the TGI (SK-MEL-5 melanoma) of the same molecule?
Its TGI is 21.1 µM.

What about the TGI (NCI-H226 lung) of the same molecule?
The TGI was 32.5 µM.

What about the TGI (A498 renal) of the same molecule?
The TGI was 62.8 µM.

What about the TGI (MALME-3M melanoma) of the same molecule?
Its TGI is 80.2 µM.

What about the TGI (COLO 205 colon) of the same molecule?
The TGI was 48.4 µM.

And the TGI (HL-60(TB) leukemia)?
Its TGI is 37.7 µM.

And the TGI (UO-31 renal)?
The TGI was 45.5 µM.

And the TGI (M14 melanoma)?
The TGI was > 100 µM.

What about the TGI (SNB-75 CNS) of the same molecule?
The TGI was 54.9 µM.

What about the TGI (MDA-N) of the same molecule?
Its TGI is > 100 µM.

What about the TGI (HCT-116 colon) of the same molecule?
Its TGI is 89.2 µM.

And the TGI (HT29 colon)?
The TGI was 28.9 µM.

And the TGI (DU-145 prostate)?
Its TGI is > 100 µM.

What about the TGI (KM12 colon) of the same molecule?
Its TGI is 56.7 µM.

And the TGI (MOLT-4 leukemia)?
The TGI was 38 µM.

And the TGI (CAKI-1 renal)?
Its TGI is 83.7 µM.

And the TGI (PC-3 prostate)?
The TGI was > 100 µM.

And the TGI (786-0 renal)?
The TGI was > 100 µM.

What about the TGI (SW-620 colon) of the same molecule?
The TGI was > 100 µM.

And the TGI (SF-268 CNS)?
The TGI was 46.1 µM.

What about the TGI (BT-549 breast) of the same molecule?
Its TGI is 70.6 µM.

And the TGI (HCT-15 colon)?
The TGI was > 100 µM.

And the TGI (MDA-MB-435)?
The TGI was > 100 µM.

What about the TGI (SNB-19 CNS) of the same molecule?
The TGI was 74.9 µM.

What about the TGI (LOX IMVI melanoma) of the same molecule?
The TGI was 42.8 µM.

And the TGI (SF-539 CNS)?
The TGI was > 100 µM.

What about the TGI (UACC-257 melanoma) of the same molecule?
The TGI was 33.9 µM.

What about the TGI (MDA-MB-231 breast) of the same molecule?
Its TGI is > 100 µM.

And the TGI (OVCAR-3 ovarian)?
Its TGI is 37.8 µM.

And the TGI (SR leukemia)?
Its TGI is 35.6 µM.

And the TGI (HCC-2998 colon)?
The TGI was 63.3 µM.

And the TGI (UACC-62 melanoma)?
The TGI was > 100 µM.

And the TGI (HS 578T breast)?
The TGI was > 100 µM.

What about the TGI (SN12C renal) of the same molecule?
The TGI was 89.7 µM.

And the TGI (A549 NSCLC)?
The TGI was 95.4 µM.

What about the TGI (SK-MEL-28 melanoma) of the same molecule?
Its TGI is 94 µM.

What about the TGI (SF-295 CNS) of the same molecule?
Its TGI is 74.7 µM.

What about the TGI (U251 CNS) of the same molecule?
Its TGI is > 100 µM.

What about the TGI (IGROV1 ovarian) of the same molecule?
Its TGI is > 100 µM.

What about the TGI (EKVX NSCLC) of the same molecule?
The TGI was 79.4 µM.

What about the TGI (MCF7 breast) of the same molecule?
Its TGI is 78.9 µM.

What about the TGI (HOP-62 NSCLC) of the same molecule?
The TGI was > 100 µM.

And the TGI (NCI-H23 lung)?
Its TGI is 44.3 µM.

What about the TGI (TK-10 renal) of the same molecule?
Its TGI is > 100 µM.

And the TGI (NCI-H460 lung)?
The TGI was > 100 µM.

And the TGI (RPMI-8226 leukemia)?
The TGI was 59.1 µM.

What about the TGI (K-562 leukemia) of the same molecule?
The TGI was > 100 µM.

What about the TGI (RXF 393 renal) of the same molecule?
The TGI was 27.6 µM.

What about the TGI (OVCAR-8 ovarian) of the same molecule?
Its TGI is 94.4 µM.

What about the TGI (SK-OV-3 ovarian) of the same molecule?
The TGI was > 100 µM.

And the TGI (CCRF-CEM leukemia)?
The TGI was 54.5 µM.

What about the TGI (OVCAR-4 ovarian) of the same molecule?
Its TGI is > 100 µM.

What about the TGI (ACHN renal) of the same molecule?
The TGI was > 100 µM.
